This is an account of results in ChEMBL document CHEMBL1201862, “PubChem BioAssay data set” (2004).

Each structure is given as a SMILES string.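 Grown in 96-well plates, cells were treated for 48 hours with each compound at five concentrations. Insufficient inhibition: endpoint recorded as highest concentration tested. GI50 = concentration required for 50% inhibition of growth.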 Activity calls are given as the source filed them. No stated cut-off is given here; in the data, active = GI50 up to about 1.1 µM and inactive = higher. Some results are limits rather than exact numbers.

Test systems include SF-295; SNB-19; A498; OVCAR-5; SNB-75; OVCAR-8; SK-MEL-2; SK-MEL-28; COLO 205; HCT-15; HOP-92; SK-OV-3; A549; SK-MEL-5; HCT-116; CCRF-CEM; HCC 2998.
Common to all, as to experiment: inhibition of tumour cell growth, NCI panel, 48 h

In the case of `CCN(CC)CCNC(=O)c1ccc([N+](=O)[O-])cc1OC`, the GI50 in the assay with SF-295, in the assay on SNB-19, in the assay with A498, in the assay on OVCAR-5, in the assay on SNB-75 and with OVCAR-8 was > 100 µM (inactive) in each case. For the same compound, the GI50 in the assay with SK-MEL-2 was > 100 µM (inactive); in the assay with SK-MEL-28 it was > 100 µM (inactive); in the assay on COLO 205, > 100 µM (inactive); with HCT-15, > 100 µM; with HOP-92, > 100 µM (inactive); in the assay on SK-OV-3 it was > 100 µM (inactive). In addition, the GI50 with A549, in the assay with SK-MEL-5, with HCT-116 and in the assay with CCRF-CEM was > 100 µM (inactive) throughout.

In the case of `COc1ccc(CC#N)c(OCc2ccccc2)c1`, the GI50 is 60 µM (inactive) in the assay on SF-295; 40.6 µM (inactive) in the assay on SNB-19; 11.2 µM (inactive) in the assay on A498; > 100 µM (inactive) in the assay with OVCAR-8; 23.9 µM (inactive) in the assay with SK-MEL-28; 40.4 µM (inactive) in the assay on COLO 205. The GI50 is 78.3 µM (inactive) in the assay with A549; 19.7 µM (inactive) in the assay on SK-MEL-5; 33.2 µM (inactive) in the assay on HCT-116; > 100 µM (inactive) with CCRF-CEM; 29.9 µM (inactive) in the assay on HCC 2998.

As to `C[C@H](OCc1ccccc1)C(=O)N1CCS(=O)(=O)N2CCC[C@@H]2C1=O`, the GI50 in the assay with SF-295, in the assay with SNB-19, in the assay with A498, with OVCAR-5, with SNB-75 and in the assay on OVCAR-8 was > 100 µM (inactive) in each case. The GI50 in the assay on SK-MEL-28 was > 100 µM (inactive); with COLO 205 it was > 100 µM (inactive); in the assay with HCT-15 it was > 100 µM; with HOP-92 it was > 100 µM (inactive); with SK-OV-3, > 100 µM (inactive); in the assay with A549 it was > 100 µM (inactive). Besides, the GI50 in the assay with SK-MEL-5, in the assay with HCT-116, in the assay on CCRF-CEM and in the assay on HCC 2998 was > 100 µM (inactive) in each case.

For `C(=N\CC/N=C/c1cccc2ccccc12)/c1cccc2ccccc12`, the GI50 in the assay with SF-295 is > 100 µM (inactive); in the assay with SNB-19 it was > 100 µM (inactive); in the assay on OVCAR-5 it was > 100 µM (inactive); in the assay with SNB-75, 12.6 µM (inactive); in the assay with OVCAR-8, > 100 µM (inactive); in the assay with SK-MEL-2, > 100 µM (inactive). In addition, the GI50 was > 100 µM (inactive) in the assay with SK-MEL-28; > 100 µM (inactive) with COLO 205; > 100 µM in the assay on HCT-15; < 0.01 µM (active) with HOP-92; 22.1 µM (inactive) in the assay with SK-OV-3; > 100 µM (inactive) in the assay with A549. Besides, the GI50 in the assay on SK-MEL-5, in the assay with HCT-116 and with HCC 2998 was > 100 µM (inactive) in each case.

As for `C=CCC1OC(C)(C)Oc2ccc(OCOCCOC)cc21` (stereo unspecified), the GI50 with SF-295, with SNB-19, in the assay on A498, in the assay on OVCAR-5, in the assay on SNB-75 and in the assay on OVCAR-8 was > 100 µM (inactive) in each case. Besides, the GI50 in the assay with SK-MEL-2 is > 100 µM (inactive); in the assay with SK-MEL-28 it was > 100 µM (inactive); in the assay on HCT-15 it was > 100 µM; in the assay on HOP-92, > 100 µM (inactive); in the assay on SK-OV-3, > 100 µM (inactive); in the assay with A549, > 100 µM (inactive). In addition, the GI50 with SK-MEL-5, in the assay with HCT-116 and with HCC 2998 was > 100 µM (inactive) in each case.

Take `O=C(c1ccco1)N(C(=S)N1CCN(c2ccccn2)CC1)c1ccccc1`: the GI50 with SF-295, in the assay with SNB-19, with OVCAR-5, with SNB-75, in the assay with OVCAR-8 and with SK-MEL-2 was > 100 µM (inactive) throughout. In addition, the GI50 in the assay with SK-MEL-28 was > 100 µM (inactive); in the assay with COLO 205 it was > 100 µM (inactive); in the assay with HCT-15, > 100 µM; in the assay on HOP-92 it was > 100 µM (inactive); in the assay with SK-OV-3 it was > 100 µM (inactive); in the assay with A549 it was > 100 µM (inactive). Further, the GI50 in the assay with SK-MEL-5, with HCT-116 and in the assay with CCRF-CEM was > 100 µM (inactive) throughout.

Regarding `Cc1ccccc1NC(=O)C1C(=O)N(c2ccccc2C)C(=O)/C1=N\NC(N)=O` (stereo unspecified), the GI50 in the assay on SF-295 was > 100 µM (inactive); in the assay on SNB-19, > 100 µM (inactive); in the assay on A498, > 100 µM (inactive); in the assay with OVCAR-5 it was > 100 µM (inactive); in the assay with SNB-75 it was 37.5 µM (inactive); with OVCAR-8, > 100 µM (inactive). For the same compound, the GI50 is > 100 µM (inactive) in the assay on SK-MEL-2; > 100 µM (inactive) in the assay with SK-MEL-28; > 100 µM (inactive) with COLO 205; > 100 µM in the assay on HCT-15; > 100 µM (inactive) in the assay on HOP-92; > 100 µM (inactive) in the assay on A549. Moreover, the GI50 in the assay with SK-MEL-5, with HCT-116, in the assay with CCRF-CEM and in the assay with HCC 2998 was > 100 µM (inactive) throughout.

On to `CCN(C1=CC(=O)NC2CCCCN12)c1ccccc1` (stereo unspecified), for which the GI50 in the assay with SF-295, in the assay on SNB-19, in the assay on A498, in the assay with OVCAR-5, in the assay with SNB-75 and in the assay on OVCAR-8 was > 100 µM (inactive) each time. For the same compound, the GI50 with SK-MEL-2 was > 100 µM (inactive); with SK-MEL-28, > 100 µM (inactive); in the assay with COLO 205 it was > 100 µM (inactive); with HCT-15, > 100 µM; in the assay on SK-OV-3, > 100 µM (inactive); in the assay with A549, > 100 µM (inactive). The GI50 in the assay on SK-MEL-5, in the assay on HCT-116, in the assay with CCRF-CEM and in the assay with HCC 2998 was > 100 µM (inactive) in each case.

`COc1c(OC(C)=O)ccc(/C=C2\N=C(C)OC2=O)c1[N+](=O)[O-]`: the GI50 in the assay with SF-295 was > 100 µM (inactive); in the assay on SNB-19, > 100 µM (inactive); in the assay on A498 it was > 100 µM (inactive); in the assay with OVCAR-5, > 100 µM (inactive); with SNB-75, 91.6 µM (inactive); in the assay with OVCAR-8 it was > 100 µM (inactive). Further, the GI50 with SK-MEL-2 was > 100 µM (inactive); with COLO 205, > 100 µM (inactive); in the assay on HCT-15, > 100 µM; in the assay on HOP-92 it was > 100 µM (inactive); with SK-OV-3, > 100 µM (inactive); in the assay on A549, > 100 µM (inactive). Further, the GI50 with SK-MEL-5, in the assay with HCT-116, in the assay on CCRF-CEM and in the assay with HCC 2998 was > 100 µM (inactive) in each case.

For `NC1=NN(c2ccccc2)C(=O)C1C(=O)C(=O)Nc1ccccc1` (stereo unspecified), the GI50 in the assay on SF-295, in the assay with SNB-19, in the assay on A498, in the assay on OVCAR-5, in the assay with OVCAR-8 and with SK-MEL-2 was > 100 µM (inactive) each time. Moreover, the GI50 in the assay on COLO 205 is > 100 µM (inactive); in the assay on HCT-15, > 100 µM; with HOP-92 it was > 100 µM (inactive); in the assay with SK-OV-3 it was > 100 µM (inactive); in the assay with A549, > 100 µM (inactive); in the assay with SK-MEL-5, > 100 µM (inactive). The GI50 in the assay with HCT-116, with CCRF-CEM and in the assay with HCC 2998 was > 100 µM (inactive) in each case.

With `Cc1cc2ncn(-c3nc4ccccc4nc3C(C#N)S(C)(=O)=O)c2cc1C` (stereo unspecified), the GI50 in the assay with SNB-19 is > 100 µM (inactive); in the assay on A498 it was 19.7 µM (inactive); in the assay with OVCAR-5, > 100 µM (inactive); with SNB-75, > 100 µM (inactive); with OVCAR-8, > 100 µM (inactive); with SK-MEL-2, > 100 µM (inactive). Also, the GI50 was > 100 µM (inactive) in the assay on SK-MEL-28; > 100 µM (inactive) in the assay on COLO 205; > 100 µM with HCT-15; 0.946 µM (active) in the assay with SK-OV-3; > 100 µM (inactive) with A549; > 100 µM (inactive) with SK-MEL-5. For the same compound, the GI50 with HCT-116, with CCRF-CEM and with HCC 2998 was > 100 µM (inactive) throughout.

`COc1ccc(NC(=O)/C(Cc2cc(=O)oc3cc(O)ccc23)=N\NC(C)(C)C)c(OC)c1`: the GI50 in the assay with SF-295 was > 100 µM (inactive); in the assay with SNB-19 it was > 100 µM (inactive); in the assay on A498 it was 22.8 µM (inactive); in the assay on OVCAR-5 it was > 100 µM (inactive); in the assay with OVCAR-8, > 100 µM (inactive); in the assay with SK-MEL-2, > 100 µM (inactive). Moreover, the GI50 with SK-MEL-28 was > 100 µM (inactive); in the assay with COLO 205, > 100 µM (inactive); in the assay on HCT-15, > 100 µM; with HOP-92 it was 53 µM (inactive); with SK-OV-3, > 100 µM (inactive); with A549, > 100 µM (inactive). In addition, the GI50 with SK-MEL-5, with HCT-116, with CCRF-CEM and with HCC 2998 was > 100 µM (inactive) each time.

For the compound `CCN(CC)CCCCC1CCN(CC(=O)N2c3cc(Cl)ccc3NC(=O)CC2C)CC1` (stereo unspecified), the GI50 with SF-295, with SNB-19, with A498, with OVCAR-5, in the assay with SK-MEL-28 and in the assay on COLO 205 was > 100 µM (inactive) in each case. In addition, the GI50 was > 100 µM in the assay with HCT-15; > 100 µM (inactive) in the assay with HOP-92; > 100 µM (inactive) with SK-OV-3; > 100 µM (inactive) with A549; > 100 µM (inactive) in the assay with SK-MEL-5; > 100 µM (inactive) in the assay on HCT-116. Moreover, the GI50 in the assay on CCRF-CEM and in the assay with HCC 2998 was > 100 µM (inactive) each time.
